Series [1] concerns L. infantum promastigotes. The experiment in a line: Antileishmanial activity against L. infantum promastigotes (luciferase assay). Format: cell-based. Particulars: Leishmania infantum, 72 h, read-out: EC50 L. infantum Pro. As for the experimental part: L. infantum promastigotes (MHOM/MA/67/ITMAP-263, CNR Leishmania, Montpellier, France, expressing luciferase activity) were used in the following tests. The effects of the tested compounds on the growth of L. infantum promastigotes were assessed by Luciferase Assay. Briefly, promastigotes in log-phase in RPMI 1640 medium supplemented with 10% fetal calf serum (FCS), 2 mM L-glutamine and antibiotics (100U/mL penicillin, 100 µg/mL streptomycin and 50µg/mL geneticin), were incubated at an average density of 10^6 parasites/mL (100 µL/well) in sterile 96-well plates with various concentrations of compounds dissolved in DMSO (final concentration less than 0.5% v/v), in duplicate. Appropriate controls (100 µL/well) treated by DMSO and reference drugs (purchased for the majority from Sigma Aldrich) were added to each set of experiments. After a 72 h incubation period at 24 °C, each plate-well was then microscope-examined for detecting possible precipitate formation. To estimate the luciferase activities of promastigotes, 80 µL of each well are transferred in white 96-well plates, Steady Glow reagent (Promega) was added according to manufacter’s instructions, and plates were incubated for 2 min. The luminescence was measured in a FLUOstar Omega (BMG Labtech, Champigny-sur-Marne, France). […] EC50 were calculated by non-linear regression analysis processed on dose–response curves, using TableCurve 2D V5 software.

Series [2] concerns L. infantum axenic amastigotes. The experiment in a line: Antileishmanial activity on L. infantum axenic amastigotes (luciferase assay). Format: cell-based. Particulars: Leishmania infantum, 48 h, read-out: EC50 L. infantum Axenic Ama. The protocol: L. infantum promastigotes were harvested in logarithmic phase of growth by centrifugation at 900× g for 10 min. The supernatant was removed carefully and was replaced by the same volume of RPMI 1640 complete medium at pH 5.4 and incubated for 24 h at 24 °C. The acidified promastigotes were then incubated for 24 h at 37 °C in a ventilated flask to transform them into axenic amastigotes. The amastigote stage was checked both by electron microscopy (short flagellum with small bulbous tip extending beyond a spherical cell body) and RT-PCR to confirm the overexpression of ATG8 and amastin genes in amastigotes, relative to promastigotes. The effects of the tested compounds on the growth of L. infantum axenic amastigotes were assessed as follows. L. infantum amastigotes were incubated at a density of 2 × 10^6 parasites/mL in sterile 96-well plates with various concentrations of compounds dissolved in DMSO (final concentration less than 0.5% v/v), in duplicate. Appropriate controls treated with DMSO, amphotericin B, miltefosine, fexinidazole and fexinidazole sulfone were added to each set of experiments. After a 48 h incubation period at 37 °C, each plate-well was then microscopically examined to detect any precipitate formation.
(§1) • Luciferase activity and determination of EC50 were performed as above.

Series [3] relates to L. infantum intracellular amastigotes. The experiment in a line: Antileishmanial activity on L. infantum intracellular (intra-THP1 macrophage) amastigotes. The series is classed as cell-based. Particulars: Leishmania infantum, THP-1; intramacrophage (THP1) amastigotes, 120 h; read-out: EC50 L. infantum Intra. Ama. As for the experimental part: The undifferentiated THP1 human monocyte cells (acute monocytic leukemia cell line purchased from ATCC, ref TIB-202) were grown in RPMI 1640 medium (Life Technologies, Saint-Aubin, France) supplemented with 10% FCS (Life Technologies, Saint-Aubin, France), 100 U/mL penicillin, 100 µg/mL streptomycin and 2 mM L-glutamine at 37 °C, 5% CO2. The culture was maintained between 3.10^5 and 1.10^6 cells/mL. The in vitro evaluation of the antileishmanial activity on intracellular amastigote forms of the tested compound was assessed as below.
Briefly, 200 μL of THP-1 cells with Phorbol 12-Myristate 13-Acetate (final concentration 50 ng/mL) were seeded in 96-well plates at an average density of 0.77 × 10^5 cells/mL and incubated for 96 h at 37 °C, 5% CO2. Promastigotes were centrifuged at 3000 rpm for 10 min and the supernatant replaced by the same volume of complete RPMI pH 5.4 and incubated for 24 h at 27 °C. Differentiated THP-1 cells were then infected by acidified promastigotes with an infection ratio of twenty parasites for one macrophage and incubated for 24 h at 37 °C, 5% CO2.
as §1

A short description of series [4]: Redox potential of the nitro group by cyclic voltammetry. Format: physicochemical. Particulars: cyclic voltammetry in DMSO, corrected versus NHE. As for the experimental part: Voltammetric measurements were carried out with a potentiostat Autolab PGSTAT100 (ECO Chemie, Utrecht, The Netherlands) controlled by GPES 4.09 software (ECO Chemie, Utrecht, The Netherlands). Experiments were performed at room temperature in a homemade airtight three–electrode cell connected to a vacuum/argon line. The reference electrode consisted of a saturated calomel electrode (SCE) separated from the solution by a bridge compartment. The counter electrode was a platinum wire of 1 cm^2 apparent surface. The working electrode was a GC microdisk (1.0 mm in diameter–Bio-logic SAS). The supporting electrolyte (nBu4N)[PF6] (Fluka, 99% puriss electrochemical grade) and the solvent DMSO (Sigma-Aldrich puriss p.a. dried <0.02% water) were used as received and simply degassed under argon. The solutions used during electrochemical analyses were typically 10^−3 M in compound and 0.1 M in supporting electrolyte. Before each measurement, the solutions were degassed by bubbling Ar, and the working electrode was polished with a polishing machine (Presi P230, Eybens, France). Under the experimental conditions adopted in this work, the half-wave potential (E1/2) of the ferrocene Fc+/Fc couple in DMSO was E1/2 = 0.45 V vs. SCE. Experimental peak potentials were measured versus SCE and converted to NHE by adding 0.241 V.

The values below come from article PMC9415646, “Improving Aqueous Solubility and In Vitro Pharmacokinetic Properties of the 3-Nitroimidazo[1,2-a]pyridine Antileishmanial Pharmacophore” (Pharmaceuticals, 2022).

For `O=[N+]([O-])c1c(CS(=O)(=O)c2ccc(OC(F)(F)F)cc2)nc2c(Br)cc(Cl)cn12` [Compound 2f, 8-Bromo-6-Chloro-3-Nitro-2-[(4-Trifluoromethoxyphenylsulfonyl)methyl]imidazo[1,2-a] pyridine], the melting point stood at 178 °C. For the same compound, the EC50 in series [1] is 6.7 ± 0.8 µM. Further, in series [2], the EC50 was 2.7 ± 0.4 µM. For the same compound, the EC50 in series [3] worked out at 4.2 ± 0.3 µM. For the same compound, in series [4], the “E0 (redox potential of the nitro group)” value is on record as −0.62 V.

Compound `COc1ccc(S(=O)(=O)Cc2nc3c(Br)cc(Cl)cn3c2[N+](=O)[O-])cc1` [Compound 2g, 8-Bromo-6-Chloro-2-[(4-Methoxyphenylsulfonyl)methyl]-3-Nitroimidazo[1,2-a]pyridine] gave a melting point of 226 °C. For the same compound, the EC50 in series [1] came to 9.3 ± 1.2 µM. In addition, in series [2], the EC50 was 2.3 ± 0.3 µM. Besides, in series [3], the EC50 was determined as 2.2 ± 0.1 µM. Moreover, the “E0 (redox potential of the nitro group)” value in series [4] is on record as −0.64 V.

Consider `O=[N+]([O-])c1c(CS(=O)(=O)c2ccc(O)cc2)nc2c(Sc3ccc(Cl)cc3)cc(Cl)cn12` [Compound 3a, 4-{[(6-Chloro-8-[(4-Chlorophenyl)thio]-3-Nitroimidazo[1,2-a]pyridin-2-yl)methyl]sulfonyl}phenol], for which the melting point was 241 °C. Also, the EC50 in series [1] was found to be 5.6 ± 0.9 µM. Also, the EC50 in series [2] stood at 1.4 ± 0.3 µM. The 50% effective concentration (EC50) in series [3] came out at 2.7 ± 0.5 µM.

In the case of `O=[N+]([O-])c1c(CS(=O)(=O)c2ccc(Cl)cc2)nc2c(Sc3ccc(Cl)cc3)cc(Cl)cn12` [Compound 3b, 6-Chloro-2-[(4-Chlorophenylsulfonyl)methyl]-8-[(4-Chlorophenyl)thio]-3-Nitroimidazo[1,2-a]pyridine], the melting point was found to be 221 °C. Also, in series [1], the EC50 is 1.2 ± 0.1 µM. In series [2], the EC50 is 1 ± 0.1 µM. Besides, the EC50 in series [3] was found to be 0.7 ± 0.1 µM. Besides, the “E0 (redox potential of the nitro group)” value in series [4] is listed as −0.68 V.

As to `O=[N+]([O-])c1c(CS(=O)(=O)c2ccc(F)cc2)nc2c(Sc3ccc(Cl)cc3)cc(Cl)cn12` [Compound 3c, 6-Chloro-8-[(4-Chlorophenyl)thio]-2-[(4-Fluorophenylsulfonyl)methyl]-3-Nitroimidazo[1,2-a]pyridine], the melting point was found to be 197 °C. The EC50 in series [1] turned out to be 1.5 ± 0.1 µM. For the same compound, in series [2], the 50% effective concentration (EC50) was found to be 0.2 ± 0.1 µM. In addition, the EC50 in series [3] amounted to 1.6 ± 0.1 µM. In series [4], the “E0 (redox potential of the nitro group)” value was −0.61 V.

The compound `O=[N+]([O-])c1c(CS(=O)(=O)c2ccc(C(F)(F)F)cc2)nc2c(Sc3ccc(Cl)cc3)cc(Cl)cn12` [Compound 3d, 6-Chloro-8-[(4-Chlorophenyl)thio]-3-Nitro-2-[(4-Trifluoromethylphenylsulfonyl)methyl]imidazo[1,2-a]pyridine] returned a melting point of 222 °C. Moreover, in series [1], the EC50 was 3.3 ± 0.4 µM. Further, the EC50 in series [2] was found to be 0.8 ± 0.1 µM. Further, in series [3], the EC50 stood at 4.4 ± 0.2 µM. Also, the “E0 (redox potential of the nitro group)” value in series [4] is −0.56 V.

`O=[N+]([O-])c1c(CS(=O)(=O)c2ccc(OC(F)(F)F)cc2)nc2c(Sc3ccc(Cl)cc3)cc(Cl)cn12` [Compound 3e, 6-Chloro-8-[(4-Chlorophenyl)thio]-3-Nitro-2-[(4-Trifluoromethoxyphenylsulfonyl)methyl]imidazo[1,2-a]pyridine] displayed a melting point of 173 °C. Also, the EC50 in series [1] is 3.1 ± 0.2 µM. Also, the EC50 in series [2] turned out to be 0.8 ± 0.2 µM. Moreover, the 50% effective concentration (EC50) in series [3] was 1.6 ± 0.1 µM. Moreover, in series [4], the “E0 (redox potential of the nitro group)” value was −0.66 V.

Regarding `COc1ccc(S(=O)(=O)Cc2nc3c(Sc4ccc(Cl)cc4)cc(Cl)cn3c2[N+](=O)[O-])cc1` [Compound 3f, 6-Chloro-8-[(4-Chlorophenyl)thio]-2-[(4-Methoxyphenylsulfonyl)methyl]-3-Nitroimidazo[1,2-a]pyridine], the melting point was 214 °C. The EC50 in series [1] stood at 1.2 ± 0.1 µM. In addition, in series [2], the EC50 stood at 0.5 ± 0.1 µM. The EC50 in series [3] turned out to be 0.9 ± 0.1 µM. The “E0 (redox potential of the nitro group)” value in series [4] is −0.66 V.

Turning to `O=[N+]([O-])c1c(CS(=O)(=O)C2CC2)nc2c(Sc3ccc(Cl)cc3)cc(Cl)cn12` [Compound 3h, 6-Chloro-8-[(4-Chlorophenyl)thio]-2-[(cyclopropylsulfonyl)methyl]-3-Nitroimidazo[1,2-a]pyridine], the melting point was 196 °C. In addition, the EC50 in series [1] was determined as 2.2 ± 0.3 µM. The EC50 in series [2] is 2.4 ± 0.1 µM. Further, in series [3], the EC50 turned out to be 3.7 ± 0.2 µM. For the same compound, the “E0 (redox potential of the nitro group)” value in series [4] is on record as −0.65 V.

As to `O=[N+]([O-])c1c(CS(=O)(=O)CCC(F)(F)F)nc2c(Sc3ccc(Cl)cc3)cc(Cl)cn12` [Compound 3i, 6-Chloro-8-[(4-Chlorophenyl)thio]-3-Nitro-2-[(3,3,3-Trifluoropropylsulfonyl)methyl]imidazo[1,2-a]pyridine], the melting point came to 183 °C. Besides, the EC50 in series [1] worked out at 1.4 ± 0.1 µM. Also, the EC50 in series [2] came out at 0.8 ± 0.3 µM. Moreover, the EC50 in series [3] turned out to be 1.2 ± 0.1 µM. The “E0 (redox potential of the nitro group)” value in series [4] is −0.64 V.

With `O=[N+]([O-])c1c(CS(=O)(=O)CCC(F)(F)F)nc2c(S(=O)(=O)c3ccc(Cl)cc3)cc(Cl)cn12` [Compound 6b, 6-Chloro-8-[(4-Chlorophenyl)sulfonyl]-3-Nitro-2-[(3,3,3-Trifluoropropylsulfonyl)methyl] imidazo[1,2-a]pyridine], the melting point is 233 °C. Moreover, in series [1], the concentration for a half-maximal effect (EC50) was 13.7 ± 0.9 µM. Also, the EC50 in series [2] is 2.3 ± 0.3 µM. Besides, the EC50 in series [3] turned out to be 8.3 ± 0.8 µM.

On to `CSc1ccc(OCc2ncc([N+](=O)[O-])n2C)cc1` [Fexinidazole, reference compound], for which the EC50 stood at 1 ± 0.1 µM in series [1], 7.8 ± 2.3 µM in series [2] and 15.9 ± 3.2 µM in series [3]. The “E0 (redox potential of the nitro group)” value in series [4] is −0.83 V.

For the compound `O=[N+]([O-])c1c(CS(=O)(=O)c2ccccc2)nc2c(Br)cc(Cl)cn12` [Hit A, 8-Bromo-6-chloro-3-nitro-2-(phenylsulfonylmethyl)imidazo[1,2-a]pyridine, reference compound], the EC50 in series [1] came to 8.7 ± 0.7 µM; in series [2], 16.4 ± 1.3 µM; in series [3] it was 2.1 ± 0.1 µM. Also, the “E0 (redox potential of the nitro group)” value in series [4] is listed as −0.65 V.

Take `O=[N+]([O-])c1c(CS(=O)(=O)c2ccccc2)nc2c(Sc3ccc(Cl)cc3)cc(Cl)cn12` [Hit B, reference compound]: the EC50 in series [1] was determined as 0.6 ± 0.1 µM; in series [2], 1.7 ± 0.3 µM; in series [3], 3.2 ± 0.1 µM. Further, the “E0 (redox potential of the nitro group)” value in series [4] was −0.63 V.

The EC50 is the concentration needed to bring the measured effect to its halfway point. As a reminder, the melting point is the temperature, or range, at which the solid turns liquid.
